# Assay results: paper PMC6006285, “Specific stereochemistry of OP-1074 disrupts estrogen receptor alpha helix 12 and confers pure antiestrogenic activity” (Nature Communications, 2018)
# Where “and” joins values, the source holds several entries; their conditions need not be identical. Equal values may be shown once.
# Experiments:
# [1] = test system: E2-stimulated AP activity in Ishikawa cells; experiment: Alkaline phosphatase (AP) assay, antagonist mode (presence of 500 pM E2); type: cell-based, human
# Protocol: Our primary screen to distinguish pure antiestrogens from SERMs was induction of alkaline phosphatase (AP) activity in Ishikawa uterine cells. […] The reference SERM used in our screen was endoxifen (N-desmethyl-4-hydroxytamoxifen), the most abundant bioactive metabolite of tamoxifen.
# Shown is a representative figure analyzed and presented as above.
# At least 4 h later cells were treated with antiestrogens and media was diluted to 2.5% stripped FBS. Cells were incubated for 3 days, media removed and plates frozen at −80 °C. Thawed plates were incubated with a chromogenic substrate of AP, p-nitrophenyl phosphate (ThermoFisher Scientific, #36721), for 40–60 min at 40 °C, and absorbance read at 405 nm on the Varioskan Lux multimodal plate reader (ThermoFisher Scientific, #VLBL00D0).
# wild type ERα = target: T1, wild type ERα (Homo sapiens, UniProt P03372); experiment: ERE3X-TATA-Luc reporter in HeLa cells transfected with ERα; type: cell-based; details: 1 nM E2, 22 h, read-out: IC50 inhibition of E2-stimulated ERα transcriptional activity
# T1 construct: expressed in transfected cells; host or cells: HeLa
# T1 sequence (P03372 1-595): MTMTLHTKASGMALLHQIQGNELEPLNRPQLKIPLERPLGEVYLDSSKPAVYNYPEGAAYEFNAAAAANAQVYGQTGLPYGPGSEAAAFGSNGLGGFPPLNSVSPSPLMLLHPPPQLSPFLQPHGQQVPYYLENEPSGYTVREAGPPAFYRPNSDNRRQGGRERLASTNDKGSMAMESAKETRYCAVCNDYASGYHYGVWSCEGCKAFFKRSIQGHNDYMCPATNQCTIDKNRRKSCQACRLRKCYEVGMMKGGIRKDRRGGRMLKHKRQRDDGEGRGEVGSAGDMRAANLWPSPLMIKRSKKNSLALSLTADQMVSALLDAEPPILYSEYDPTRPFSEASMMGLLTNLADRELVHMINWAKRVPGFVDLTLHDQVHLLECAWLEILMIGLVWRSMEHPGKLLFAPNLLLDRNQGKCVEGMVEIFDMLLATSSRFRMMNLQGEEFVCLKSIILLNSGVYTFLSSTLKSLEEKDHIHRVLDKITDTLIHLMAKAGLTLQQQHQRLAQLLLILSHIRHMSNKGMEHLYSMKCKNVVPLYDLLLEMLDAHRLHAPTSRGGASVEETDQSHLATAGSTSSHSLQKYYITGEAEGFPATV
# Excerpt: Supplementary Figure 2: Specificity of OP-1074
# Supplementary Figure 2. OP-1074 is specific for ERα and ERβ. A, OP-1074 inhibits E2-stimulated ERα and ERβ mediated transcription. HeLa cells were transfected with an estrogen responsive reporter gene, ERE3X-TATA-Luc, along with wild type ERα or ERβ, and treated […]
# Shown is the mean luciferase activity
# Luciferase activity (% Dex)
# Luciferase activity (% MPA)
# Luciferase activity (% R1881)
# (1 picture or pasted object on this page, not shown here) […]
# representative experiment. […]
# receptor (AR, (B)), glucocorticoid receptor (GR, (C)), and the B-isoform of the progesterone receptor (PR-B, (D)). HeLa cells were transfected with the designated wild type receptor along with reporter gene PRE3X-TATA-Luc, which is promiscuously activated with known agonists specific for each receptor: R1881 for AR, dexamethasone (Dex) for GR, and medroxyprogesterone acetate (MPA) for PR-B. Each receptor was also dosed with one concentration of known antagonist for each receptor: 32 nM bicalutamide for AR, and 500 nM RU486 for GR and PR. Transfected cells were treated with the designated ligands for 22 hours and luciferase activity assayed. Shown are representative experiments, independently performed at least 3 times. Note that curves for agonists for each receptor were performed in separate experiments. […]
# [2] = target: T2, Estrogen Receptor α LBD (ERα) (Homo sapiens, UniProt P03372); experiment: Competitive ligand binding assay with [3H]-E2; details: 10 nM [3H]-E2 tracer, 2 nM biotinylated ERα LBD; representative experiment
# T2 construct: 2 nM biotinylated Estrogen Receptor α LBD (ERα) was incubated; biotin (biotinylated)
# T2 sequence (P03372 311-547 limits assumed): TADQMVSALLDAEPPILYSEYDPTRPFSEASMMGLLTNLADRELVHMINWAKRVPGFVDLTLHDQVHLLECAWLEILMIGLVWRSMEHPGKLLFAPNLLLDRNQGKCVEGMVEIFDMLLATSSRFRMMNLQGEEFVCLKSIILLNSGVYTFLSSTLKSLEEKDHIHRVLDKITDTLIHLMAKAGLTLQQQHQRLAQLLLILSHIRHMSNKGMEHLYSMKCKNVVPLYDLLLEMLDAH
# Protocol: Experimental data points are mean + /− s.e.m. of triplicate samples in a representative experiment. […] Experimental data points are mean + /− s.d. of triplicate samples in a representative experiment
# Triplicate reactions were vortexed and 100 μL was added in triplicate to a 96-well streptavidin flashplate (Perkin Elmer #SMP103001PK), which incubated overnight at 4 °C prior to reading.
# MCF7/HER2/neu tumors = test system: MCF7/HER2/neu tumors
# Protocol: MCF7/HER2/neu cells were grown in culture and implanted into 6–7 week athymic ovariectomized female nu/nu mice (Taconic Biosciences). To stimulate tumor growth, 0.18 mg estradiol 90 day release pellets (Innovative Research) were implanted along with cells. […] Tumor volume and bodyweight were measured twice weekly. At end of the study animals were euthanized, tumors resected and snap frozen in liquid nitrogen, and uteri were resected, weighed, and fixed in 10% formalin.
# [3] = number of 10 tumors at end of study, OP-1074 100 mg/kg oral twice daily, fulvestrant 100 mg/kg subcutaneous daily
smiles,measurement,setting,value
CC1=C(c2ccc(O)cc2)[C@H](c2ccc(OCCN3CC[C@@H](C)C3)cc2)Oc2cc(O)ccc21 [OP-1074],IC50,"[1]; Homo sapiens, Ishikawa, 72 h, read-out: IC50 inhibition of E2-stimulated AP activity",20 nM
same,Antagonism of E2-stimulated AP activity,"[1]; Ishikawa cells, 500 pM E2",completely antagonized E2
same,IC50,wild type ERα,1.6 nM and 1.7 nM
same,IC50,[2],7 nM and 7.03 nM
same,Tolerability,"MCF7/HER2/neu tumors; nude mice, 100 mg/kg dosed twice a day by oral gavage",well-tolerated with no adverse effects on behavior or mouse bodyweight
same,Tumors shrunk / growth inhibited by >50%,MCF7/HER2/neu tumors; [3],all ten
same,Tumors shrunk >80%,MCF7/HER2/neu tumors; [3],9/10
